# Test results taken from patent US12544403B2, “Methods to treat mitochondrial-associated dysfunctions or diseases” (The General Hospital Corporation, priority 2019, dated 2026).
# Columns and labels:
# [1] = Brain tissue PO2 measurement (vestibular nuclei, optical probe); assay type: in vivo, mice; conditions: optical probe (FIG. 3G)
# Protocol: Ndufs4^−/− and WT mice were anesthetized with Isoflurane (induction at 2-4%, maintenance at 1-1.5%), intubated, and mechanically ventilated with a tidal volume of 8 ml/kg, a respiratory rate of 110 breaths per minute and an inspired fraction of oxygen (FiO2) of 21%. Mice were placed in a prone position and the head was stabilized using a stereotaxic frame (ASI instruments, Inc., MI). After incision and dissection of the skin, an opening in the skull was performed using a micro-drill (MD-1200, Braintree Scientific, Inc., MA) and a PO2 probe was inserted at the desired location. The coordinates for the thalamic measurements were mediolateral [ML]=−1.00 mm, anterioposterior [AP]=−2.00 mm, and dorsoventral [DV]=−4.00 mm from the bregma, while the coordinates for the vestibular nuclei were ML=−1.25 mm, AP=−6.00 mm, and DV=−3.90 mm from the bregma. […] In some experiments the FiO2 was modulated over the course of the test and the brain PO2 was simultaneously measured.
# (§1) Mice were housed in 80-L transparent acrylic boxes. […] The oxygen concentration was measured at the outlet port of the chamber with an O2 sensor (MiniOx 1; Ohio Medical), which was calibrated using an 8.55% O2 reference tank (Airgas). In a similar way the CO concentration was measured a CO sensor (MSA Altair PRO; MSA Safety Inc, Pittsburgh, Pa), which was calibrated using a 1000 ppm CO reference cylinder (Airgas). […]
# [2] = Hematocrit and COHb measurements (blood gas analyzer) in mice chronically breathing CO; assay type: in vivo; conditions: for hematocrit: after three weeks of 600 ppm CO treatment
# Protocol: Eighty microliters of blood were collected by tail snip into a heparinized capillary. Hemoglobin concentration, hematocrit and the saturation of hemoglobin with oxygen (O2Hb) and carbon monoxide (COHb) were measured using a blood gas analyzer (ABL800 FLEX, Radiometer, Copenhagen, Denmark).
# (§2) Mice were housed in 80-L transparent acrylic boxes. Control chambers were provided with a constant flow of medical air at 21% FiO2. A concentration of 11% or 17% oxygen was obtained by mixing medical air with nitrogen obtained from a nitrogen generator (MAG-20; Higher Peak). A concentration of 600 ppm CO was obtained by mixing medical air with CO from a cylinder containing 2% CO (20,000 ppm) (Airgas). The total gas flow through the chamber was adjusted to maintain chamber CO2 concentrations below 0.4% (CO200; Extech). Soda lime was added to the chambers as a CO2 scavenger. The oxygen concentration was measured at the outlet port of the chamber with an O2 sensor (MiniOx 1; Ohio Medical), which was calibrated using an 8.55% O2 reference tank (Airgas). In a similar way the CO concentration was measured a CO sensor (MSA Altair PRO; MSA Safety Inc, Pittsburgh, Pa), which was calibrated using a 1000 ppm CO reference cylinder (Airgas). Oxygen levels inside the chambers were tolerated within a 0.4% offset from the target concentration by adjusting nitrogen flow as needed. Temperature was maintained at 24-26° C., and humidity was maintained at 30-70%. A standard light-dark cycle of ˜12 h light exposure was used. Mice were housed in cages with standard bedding and given unlimited access to food and water.
# Ndufs4 KO mice [3] = assay: Survival and body weight of Ndufs4 KO mice (Leigh syndrome model) breathing CO; assay type: in vivo
# Description: All animal work in manuscript was approved by the Subcommittee on Research Animal Care and the Institutional Animal Care and Use Committee of Massachusetts General Hospital. Ndufs4^−/− were obtained from Palmiter laboratory (University of Washington). Mice lacking Phd1 (Aragones et al., 2008), Nestin-Phd2 (Mazzone et al., 2009) and Phd3 (Bishop et al., 2008) were provided by the Carmeliet laboratory (KU Leuven). Vh1L^ch/ch mice were provided by Josef Prchal (University of Utah). Genetic crosses were performed by crossing Ndus4^+/− mice with remaining strains. Throughout this study, Ndufs4^+/+ and Ndufs4^+/− mice were indiscriminately used as healthy controls, since there is no apparent phenotypical difference between these genotypes. When possible, controls from the same genetic cross were used, in order to make comparisons between reasonably similar genetic backgrounds. Pups were genotyped and weaned from mothers at 25-30 d of age. Cages and water were changed weekly. […]
# as §1
# Ndufs4 KO mice [4] = assay: T2-weighted brain MRI of Ndufs4 KO mice breathing CO; assay type: in vivo
# Description: as §2
# MRI scans of the brain were performed as previously described (Ferrari et al., 2017), using respiratory gated T2-weighted RARE (rapid acquisition of refocused echoes) MRI images acquired on a 4.7-T small animal scanner (Pharmascan; Bruker) with the following parameters: RARE factor: 10, echo time: 60 ms, repetition time: 6000 ms, Averages: 8, 192×192×24 image matrix with a voxel size of 0.130×0.130×0.7 mm. Mice were under anesthesia (isoflurane between 0.5-1.5% in room air) during the imaging procedure. Images were generated using a DICOM reader (Osirix, University of Geneva).
# hemoglobin = hemoglobin (Homo sapiens, UniProt P68871+P69905); conditions: cited from earlier work
# [5] = Ndufs4 KO mice exposed to CO for 2-3 months (FIG. 3H)
# hemoglobin, sequence (P69905 2-142 limits assumed): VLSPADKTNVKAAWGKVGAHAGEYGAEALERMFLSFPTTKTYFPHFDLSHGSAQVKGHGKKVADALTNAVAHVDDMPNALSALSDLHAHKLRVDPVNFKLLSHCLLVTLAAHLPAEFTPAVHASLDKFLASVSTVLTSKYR
# hemoglobin, sequence (P68871 2-147 limits assumed): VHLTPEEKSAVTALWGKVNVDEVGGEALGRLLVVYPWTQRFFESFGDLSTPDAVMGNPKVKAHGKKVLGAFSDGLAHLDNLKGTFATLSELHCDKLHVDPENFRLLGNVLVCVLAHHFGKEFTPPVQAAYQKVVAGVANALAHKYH
smiles,measurement,setting,value
"[C-]#[O+] [CO, carbon monoxide]",brain PO2,[1]; Ndufs4 KO mice chronically breathing CO at 600 ppm in air,36 mmHg
same,brain PO2,[1]; WT mice chronically breathing CO at 600 ppm in air,19 mmHg
same,hematocrit,[2]; Ndufs4 KO mice,76%
same,hematocrit,[2]; WT mice,79%
same,arterial O2Hb,"[2]; chronic, continuous 600 ppm CO in air (FIG. 3C)",~60%
same,arterial COHb,"[2]; chronic, continuous 600 ppm CO in air, WT mice (FIG. 3C)",~40%
same,median survival,Ndufs4 KO mice [3]; 600 ppm CO in room air (FIG. 3E),~150 days
same,body weight,Ndufs4 KO mice [3]; 600 ppm CO started at late-stage disease (FIG. 3D),body weight gradually regained
same,Leigh's disease lesions on MRI,Ndufs4 KO mice [4]; [5],not present
same,new brain lesions on MRI due to chronic CO treatment,Ndufs4 KO mice [4]; [5],hyperintense lesions apparent in the caudoputamen region of the brain
same,MRI lesions in the vestibular nucleus,"Ndufs4 KO mice [4]; late-stage Ndufs4 KO mice, 600 ppm CO for 2-3 weeks (FIG. 3F)",completely reversed lesions in the vestibular nucleus
same,affinity for hemoglobin relative to oxygen,hemoglobin,200 fold
